From patent US10111435B2, “Herbicidal compositions containing N-(1,3,4-oxadiazol-2-yl)-aryl carboxylic acid amides” (BAYER CROPSCIENCE AKTIENGESELLSCHAFT, priority 2013, dated 2018)

Assays:
Format in all cases: in vivo
[1] = tested on: Amaranthus retroflexus (AMARE); experiment: greenhouse post-emergence herbicidal efficacy against AMARE
Procedure: (§1) All trials whose results are shown were conducted in a greenhouse by the methodology specified below. The effect of the inventive herbicidal compositions was examined on the following harmful plants 14 and 21 days after application:
(§2) Echinochloa crus-galli (ECHCG), Eleusine indica (ELEIN), Setaria viridis (SETVI), Amaranthus retroflexus (AMARE), Chenopodium album (CHEAL), Kochia scoparia (KCHSC), Solanum nigrum (SOLNI), Avena fatua (AVEFA), Bromus sterilis (BROST), Lolium multiflorum (LOLMU), Phalaris minor (PHAMI), Poa annua (POAAN), Galium aparine (GALAP), Matricaria inodora (MATIN) and Polygonum convolvulus (POLCO).
(§3) The harmful plant seeds were sown in pots (diameter 8 cm) with sandy loam soil and germinated under optimal conditions. The inventive herbicidal compositions or the active ingredients alone were applied post-emergence to the planted pots with a spray volume of 300 L/ha. The trial was conducted in a greenhouse under optimum growth conditions. The herbicidal effects were assessed visually by comparison of untreated and treated plants. The percentages mean: 0%=no effects, 100%=the plants die off completely). The percentages are used to calculate interactions between individual treatments and combination treatments according to S. R. Colby, Weeds 15, pages 20 to 22 (1967).
(§4) The abbreviations mean: • a.i.=active ingredient • E^C=expected value according to Colby (E^C=A+B−A×B/100) • Diff: =difference (%) of measured value from expected value (%) (measured value minus expected value)
(§5) Assessment: • measured value E is greater than E^C:->synergism (+ diff.) • measured value E equals E^C:->additive effect • measured value E is smaller than E^C:->antagonism(− diff.)

[2] = tested on: Eleusine indica (ELEIN); experiment: greenhouse post-emergence herbicidal efficacy against ELEIN; details: for pest or weed control at 10 g/ha: 10 g of a.i./ha; for pest or weed control at 40 g/ha: 40 g of a.i./ha
Procedure: as §1, §2, §3, §4, §5

[3] = tested on: Setaria viridis (SETVI); experiment: greenhouse post-emergence herbicidal efficacy against SETVI
Procedure: as §1, §2, §3, §4, §5

[4] = tested on: Chenopodium album (CHEAL); experiment: greenhouse post-emergence herbicidal efficacy against CHEAL
Procedure: as §1, §2, §3, §4, §5

[5] = tested on: DIGSA; experiment: greenhouse post-emergence herbicidal efficacy against DIGSA
Procedure: as §1, §3, §4, §5

[6] = tested on: Echinochloa crus-galli (ECHCG); experiment: greenhouse post-emergence herbicidal efficacy against ECHCG
Procedure: as §1, §2, §3, §4, §5

[7] = tested on: Kochia scoparia (KCHSC); experiment: greenhouse post-emergence herbicidal efficacy against KCHSC
Procedure: as §1, §2, §3, §4, §5

[8] = tested on: Solanum nigrum (SOLNI); experiment: greenhouse post-emergence herbicidal efficacy against SOLNI; details: 21 days after application, 0.5 g of a.i./ha
Procedure: as §1, §2, §3, §4, §5

[9] = 14 days after application, 40 g of a.i./ha
[10] = 21 days after application, 40 g of a.i./ha
[11] = Eleusine indica, post-emergence, 336 h, 14 days after application
[12] = Eleusine indica, post-emergence, 504 h, 21 days after application
[13] = 14 days after application, 10 g of a.i./ha
[14] = 14 days after application, 100 g of a.i./ha
[15] = 14 days after application, 400 g of a.i./ha
[16] = 21 days after application, 100 g of a.i./ha
[17] = 21 days after application, 400 g of a.i./ha
[18] = 14 days after application, 1 g of a.i./ha
[19] = 21 days after application, 4 g of a.i./ha
[20] = 21 days after application, 1 g of a.i./ha
[21] = 14 days after application, 4 g of a.i./ha
[22] = 21 days after application, 0.5 g of a.i./ha
[23] = 21 days after application, 2 g of a.i./ha

Work on `COc1c(Cl)ccc(Cl)c1C(=O)O` [dicamba] yielded an Efficacy [1, 9] of 65%, an Efficacy [1, 10] of 65% and a pest or weed control at 10 g/ha [2, 11] of 10%. It also gave a pest or weed control at 40 g/ha [2, 11] of 10%, a pest or weed control at 10 g/ha [2, 12] of 0% and a pest or weed control at 40 g/ha [2, 12] of 0%. The Efficacy [3, 9] was 0%, the Efficacy [3, 13] was 0% and the Efficacy ([3]; 21 days after application, 10 g of a.i./ha) was 0%. The Efficacy [3, 10] was 0%, the Efficacy [4, 13] was 50% and the Efficacy [5, 9] was 0%. It also gave an Efficacy [5, 10] of 0%.

For `N#Cc1cc(Br)c(O)c(Br)c1` [bromoxynil], the Efficacy [1, 14] was 40%, the pest or weed control at 100 g/ha ([2]; Eleusine indica, post-emergence, 336 h, 14 days after application, 100 g of a.i./ha) was 0% and the pest or weed control at 400 g/ha ([2]; Eleusine indica, post-emergence, 336 h, 14 days after application, 400 g of a.i./ha) was 0%. For the same compound, the Efficacy [3, 15] was 0%, the Efficacy [3, 14] was 0% and the Efficacy [3, 16] was 0%. For the same compound, the Efficacy [3, 17] was 0%, the Efficacy [4, 15] was 85% and the Efficacy [4, 17] was 75%. For the same compound, the Efficacy [6, 15] was 0%, the Efficacy [6, 14] was 0% and the Efficacy [6, 17] was 0%. It also gave an Efficacy [5, 15] of 0%, an Efficacy [5, 14] of 0% and an Efficacy [5, 16] of 0%. It also gave an Efficacy [5, 17] of 0%.

Work on `COc1cc(OC)nc(NC(=O)NS(=O)(=O)c2cc(NC=O)ccc2C(=O)N(C)C)n1` [foramsulfuron] yielded a pest or weed control at 1 g/ha ([2]; Eleusine indica, post-emergence, 504 h, 21 days after application, 1 g of a.i./ha) of 60%, an Efficacy [3, 18] of 40% and an Efficacy [3, 19] of 50%. It also gave an Efficacy [3, 20] of 20%, an Efficacy [4, 18] of 50% and an Efficacy [6, 18] of 60%. For the same compound, the Efficacy [6, 20] was 30%, the Efficacy [5, 21] was 40% and the Efficacy [7, 18] was 80%. The Efficacy [7, 21] was 90% and the Efficacy [7, 19] was 80%.

Compound `COc1c(Cl)ccc(-c2cc(N)c(Cl)c(C(=O)O)n2)c1F` [halauxifen] has an Efficacy [2, 22] of 0%, an Efficacy [2, 23] of 0% and an Efficacy [3, 23] of 0%. The Efficacy ([6]; 14 days after application, 0.5 g of a.i./ha) was 0%, the Efficacy ([6]; 14 days after application, 2 g of a.i./ha) was 10% and the Efficacy [6, 23] was 20%. It also gave an Efficacy [7, 22] of 20%, an Efficacy [7, 23] of 30% and an Efficacy [8] of 50%.
